Legend:
5-HT1A receptor = biological target: T1, 5-HT1A receptor (Rattus norvegicus, UniProt P19327); experiment: Measurement of 5-HT1A receptor agonistic action on rats (in vivo): lower lip retraction and flat body posture; conditions: SD male rats, 10 mg/kg intraperitoneal; maximum of group evaluation points, 4 grades 0-3, observed 5-30 min after administration
T1 construct: from tissue; host or cells: whole animal (SD male rats), behavioural read-out
T1 sequence (P19327 1-422): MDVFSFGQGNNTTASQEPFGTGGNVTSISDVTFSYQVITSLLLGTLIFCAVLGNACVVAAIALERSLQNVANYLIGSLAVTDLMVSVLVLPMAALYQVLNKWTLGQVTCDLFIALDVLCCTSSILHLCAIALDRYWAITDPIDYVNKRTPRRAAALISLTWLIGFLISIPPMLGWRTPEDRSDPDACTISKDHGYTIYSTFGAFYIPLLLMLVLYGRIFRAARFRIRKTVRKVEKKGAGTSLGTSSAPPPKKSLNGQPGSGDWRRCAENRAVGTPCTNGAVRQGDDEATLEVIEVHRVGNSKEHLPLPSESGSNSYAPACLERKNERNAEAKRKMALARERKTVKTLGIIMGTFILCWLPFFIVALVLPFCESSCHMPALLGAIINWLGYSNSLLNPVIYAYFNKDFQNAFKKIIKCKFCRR
Description: (3) Measurement of 5-HT1A Receptor Agonistic Action on Rats (in Vivo):
Seven weeks old SD male rats were divided into 4-5 rats per group which were accustomized to the experimental environments twice. A week after the second accustomization, the rats were put into a transparent plastic case, and 10 mg/kg of a test compound (as dissolved in 1N-hydrochloric acid and diluted with suitable amount of saline) was intraperitoneally administered thereto. Immediately before the administration and 5, 10, 20 and 30 minutes after the administration, behaviors of the rats were observed as to lower lip retraction (LLP) and flat body posture (FBP). The results were evaluated in 4 grades (0: no reaction, 1: feeble reaction, 2: medium reaction, 3: maximum reaction).

human 5-HT1A receptor = biological target: T2, human 5-HT1A receptor (Homo sapiens, UniProt P08908); experiment: Affinity measurement of the compounds to human 5-HT1A receptor (in vitro), [3H]8-OH-DPAT binding; conditions: test compound 100 nmols/L; [3H]8-OH-DPAT 0.25 nmols/L; CHO cell membrane expressing human 5-HT1A receptor; read-out: Percent Inhibition (%) on Each Receptor's Binding at 10^−7M, 5-HT1A
T2 construct: purchased Packard Bioscience; host or cells: CHO cells (membrane preparation)
T2 sequence (P08908 1-422): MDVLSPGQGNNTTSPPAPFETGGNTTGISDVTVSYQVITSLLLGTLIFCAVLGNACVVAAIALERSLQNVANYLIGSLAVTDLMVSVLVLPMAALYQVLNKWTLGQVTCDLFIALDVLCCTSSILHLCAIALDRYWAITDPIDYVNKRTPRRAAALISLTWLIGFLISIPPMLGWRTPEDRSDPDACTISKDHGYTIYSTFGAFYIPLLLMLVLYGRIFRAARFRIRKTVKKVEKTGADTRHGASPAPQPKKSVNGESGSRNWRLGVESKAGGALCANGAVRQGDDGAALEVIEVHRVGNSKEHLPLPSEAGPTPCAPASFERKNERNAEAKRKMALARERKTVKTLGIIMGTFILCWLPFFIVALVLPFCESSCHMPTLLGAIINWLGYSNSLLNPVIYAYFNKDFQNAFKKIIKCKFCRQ
Method in brief: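 Membranes from CHO cells expressing human 5-HT1A were incubated 60 min at 27 °C with 0.25 nmol/L [3H]8-OH-DPAT and compound in Tris/MgSO4/EDTA/ascorbate buffer, pH 7.4. Bound radioactivity was collected on PEI-soaked GF/C filters and counted; percent inhibition was corrected for non-specific binding defined with 10 μmol/L 8-OH-DPAT.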

[1] = system: rats under restraint stress; experiment: Measurement of defecation acceleration in rats under restraint stress; format: in vivo, rat; conditions: 1 hour restraint stress, group average (Normal 1.7, Control 6.8)
Description: (5) Measurement of Defecation Acceleration in Rats under Restraint Stress […] Feed and drinking water were left for their free ingestion until the morning of the day on which the test was given. On the day of the experiment, test compounds were orally administered and positive control solution (the used compounds were dissolved in 1N-hydrochloric acid and diluted with a suitable amount of saline) was administered intraperitoneally. Five (5) minutes thereafter, under lightly anesthetized condition, the rats were placed under restraint stress, with their upper half of the bodies including the front feet immobilized with gum tape. The restraint stress loading was conducted for an hour, and the number of excrements discharged during that period was counted. […] Those compounds which were used as the positive control chemicals used in the acceleration of defecation in rats under restraint stress are identified with the following structures.

For `Cn1c(CCCCN2CCN(c3ccc4ccccc4n3)CC2)nc2ccccc2c1=O` [Example 7-20, 3-methyl-2-[4-(4-quinolin-2-ylpiperazin-1-yl)butyl]-3H-quinazolin-4-one], the “5-HT1A Receptor Agonistic Action on Rats, FBP” value (5-HT1A receptor) was 1.8, the “5-HT1A Receptor Agonistic Action on Rats, LLR” value (5-HT1A receptor) was 1.6 and the inhibition at 0.1 µM (human 5-HT1A receptor) was 101%. It also gave a Number of excrements ([1]; 1 mg/kg oral administration) of 5.4, a Number of excrements ([1]; 3 mg/kg oral administration) of 3.6 and a Number of excrements ([1]; 10 mg/kg oral administration) of 2.4.

Source: patent US7799775B2, “Pyrimidine derivatives” (ASKA Pharmaceutical Co., Ltd., priority 2004, dated 2010)
